Assays:
[1] = Phase I, 1 h daily infusion x5 q3wk: toxicity and pharmacokinetics; assay type: in vivo, human
Protocol: The objectives are to determine the Maximum Tolerated Dose, the Dose Limiting Toxicity (DLT), the pharmacokinetics (PK) and the recommended dose for phase 2 studies that can be given in a daily 1 hour IV infusion×5 days q 3 weeks. Patients with solid tumours and low and intermediate grade Non-Hodgkin's Lymphomas were eligible. The daily starting dose of aplidine was 80 μg/m^2. Cohorts of 3 patients (pts) are treated at each level with dose escalation according to toxicity, 20 patients were treated with 6 dose levels ranging from 80 μg-720 μg/m^2, 1 patient is presently at the dose of 960 μg/m^2. At total of 48 cycles were administered. Non-haematological toxicities were grade 1 and 2 with fatigue reported in most pts. Grade 1 hypersensitivity reactions were documented in 7 patients. Other toxicities included nausea, anorexia, diarrhoea, and anxiety. […] PK analysis was performed in treatment course 1. Aplidine concentrations were analysed by LC tandem mass spectrography. […] Potentially therapeutic plasma concentrations ([…]) were achieved. […] Accrual is ongoing at 960 μg/m^2.

Prostate PC-3 = experiment: sc xenograft, prostate tumour, mouse; assay type: in vivo; conditions: for Activity (% T/C.): xenograft, mouse
Protocol: Different model systems were evaluated to provide the basis for further clinical work. Selective antitumour activities were seen against two histologically different solid tumours: human gastric and prostate carcinomas. Potent in vitro activity to primary gastric tumour specimens or Hs746T gastric tumour cells is evident with IC30 values of 146 and 450 pM, respectively. […] activities were evaluated in nude rodents using sc implanted tumour fragments or hollow fibres (HF) containing tumour cells.
Follow-up studies necessitated using rats for iv infusions. With this variation, a 24 hr iv infusion schedule produced similar activities against HF gastric (20%) and HF prostate (31%) tumour cells. Cytotoxicity was also found using a 5 day iv infusion schedule against HF prostate tumour cells (33%).

aplidine
DLT ([1]; 80-960 μg/m^2 daily x5): no DLT has been documented
Bilirubin Grade 1 ([1]; DL 1, 80 ug/m^2): 1
Diarrhoea Grade 1 ([1]; DL 1, 80 ug/m^2): 1
Fatigue Grade 1 ([1]; DL 1, 80 ug/m^2): 1
Fatigue Grade 2 ([1]; DL 1, 80 ug/m^2): 2
Fever Grade 1 ([1]; DL 1, 80 ug/m^2): 1
Fever Grade 2 ([1]; DL 1, 80 ug/m^2): 1
Haemoglobin Grade 1 ([1]; DL 1, 80 ug/m^2): 1
Haemoglobin Grade 2 ([1]; DL 1, 80 ug/m^2): 2
Hyper-sensitivity Grade 1 ([1]; DL 1, 80 ug/m^2): 1
Hyper-sensitivity Grade 2 ([1]; DL 1, 80 ug/m^2): 1
Motor neuropathy Grade 1 ([1]; DL 1, 80 ug/m^2): 3
Motor neuropathy Grade 2 ([1]; DL 1, 80 ug/m^2): 2
Myalgia/weakness Grade 2 ([1]; DL 1, 80 ug/m^2): 1
Nausea Grade 1 ([1]; DL 1, 80 ug/m^2): 2
SGOT Grade 1 ([1]; DL 1, 80 ug/m^2): 1
Sensory neuropathy Grade 1 ([1]; DL 1, 80 ug/m^2): 2
Sensory neuropathy Grade 2 ([1]; DL 1, 80 ug/m^2): 1
Haemoglobin Grade 3 ([1]; DL 1, 80 ug/m^2, doubtful): 3
Diarrhoea Grade 1 ([1]; DL 2, 120 ug/m^2): 2
Fatigue Grade 1 ([1]; DL 2, 120 ug/m^2): 3
Haemoglobin Grade 1 ([1]; DL 2, 120 ug/m^2): 2
Hyper-sensitivity Grade 1 ([1]; DL 2, 120 ug/m^2): 1
Nausea Grade 1 ([1]; DL 2, 120 ug/m^2): 1
SGOT Grade 1 ([1]; DL 2, 120 ug/m^2): 1
Sensory neuropathy Grade 1 ([1]; DL 2, 120 ug/m^2): 2
Granulocytes Grade 2 ([1]; DL 2, 120 ug/m^2, doubtful): 1
Haemoglobin Grade 3 ([1]; DL 2, 120 ug/m^2, doubtful): 1
Haemoglobin Grade 4 ([1]; DL 2, 120 ug/m^2, doubtful): 2
CPK Grade 4 ([1]; DL 3, 240 ug/m^2): 1
Creatinine Grade 1 ([1]; DL 3, 240 ug/m^2): 2
Diarrhoea Grade 2 ([1]; DL 3, 240 ug/m^2): 2
Fatigue Grade 1 ([1]; DL 3, 240 ug/m^2): 1
Fatigue Grade 2 ([1]; DL 3, 240 ug/m^2): 1
Fatigue Grade 3 ([1]; DL 3, 240 ug/m^2): 1
Haemoglobin Grade 1 ([1]; DL 3, 240 ug/m^2): 1
Haemoglobin Grade 2 ([1]; DL 3, 240 ug/m^2): 1
Myalgia/weakness Grade 1 ([1]; DL 3, 240 ug/m^2): 1
Nausea Grade 1 ([1]; DL 3, 240 ug/m^2): 2
Nausea Grade 2 ([1]; DL 3, 240 ug/m^2): 1
SGOT Grade 1 ([1]; DL 3, 240 ug/m^2): 2
Sensory neuropathy Grade 1 ([1]; DL 3, 240 ug/m^2): 1
Granulocytes Grade 1 ([1]; DL 3, 240 ug/m^2, doubtful): 1
Granulocytes Grade 2 ([1]; DL 3, 240 ug/m^2, doubtful): 2
Haemoglobin Grade 4 ([1]; DL 3, 240 ug/m^2, doubtful): 2
Creatinine Grade 1 ([1]; DL 4, 360 ug/m^2): 1
Diarrhoea Grade 1 ([1]; DL 4, 360 ug/m^2): 1
Fatigue Grade 2 ([1]; DL 4, 360 ug/m^2): 3
Fever Grade 1 ([1]; DL 4, 360 ug/m^2): 1
Haemoglobin Grade 1 ([1]; DL 4, 360 ug/m^2): 2
Haemoglobin Grade 2 ([1]; DL 4, 360 ug/m^2): 2
Hyper-sensitivity Grade 1 ([1]; DL 4, 360 ug/m^2): 1
Hyper-sensitivity Grade 2 ([1]; DL 4, 360 ug/m^2): 1
Motor neuropathy Grade 1 ([1]; DL 4, 360 ug/m^2): 1
Nausea Grade 1 ([1]; DL 4, 360 ug/m^2): 1
Nausea Grade 3 ([1]; DL 4, 360 ug/m^2): 1
SGOT Grade 1 ([1]; DL 4, 360 ug/m^2): 2
Sensory neuropathy Grade 1 ([1]; DL 4, 360 ug/m^2): 1
Sensory neuropathy Grade 2 ([1]; DL 4, 360 ug/m^2): 1
Granulocytes Grade 1 ([1]; DL 4, 360 ug/m^2, doubtful): 1
Haemoglobin Grade 3 ([1]; DL 4, 360 ug/m^2, doubtful): 1
Haemoglobin Grade 4 ([1]; DL 4, 360 ug/m^2, doubtful): 2
CPK Grade 1 ([1]; DL 5, 540 ug/m^2): 1
Diarrhoea Grade 1 ([1]; DL 5, 540 ug/m^2): 2
Fatigue Grade 2 ([1]; DL 5, 540 ug/m^2): 2
Fatigue Grade 3 ([1]; DL 5, 540 ug/m^2): 1
Fever Grade 2 ([1]; DL 5, 540 ug/m^2): 1
Haemoglobin Grade 1 ([1]; DL 5, 540 ug/m^2): 1
Haemoglobin Grade 2 ([1]; DL 5, 540 ug/m^2): 1
Hyper-sensitivity Grade 1 ([1]; DL 5, 540 ug/m^2): 1
Motor neuropathy Grade 1 ([1]; DL 5, 540 ug/m^2): 1
Motor neuropathy Grade 2 ([1]; DL 5, 540 ug/m^2): 1
Myalgia/weakness Grade 1 ([1]; DL 5, 540 ug/m^2): 1
Nausea Grade 1 ([1]; DL 5, 540 ug/m^2): 2
Nausea Grade 3 ([1]; DL 5, 540 ug/m^2): 1
SGOT Grade 1 ([1]; DL 5, 540 ug/m^2): 2
Sensory neuropathy Grade 1 ([1]; DL 5, 540 ug/m^2): 2
Sensory neuropathy Grade 2 ([1]; DL 5, 540 ug/m^2): 1
Granulocytes Grade 1 ([1]; DL 5, 540 ug/m^2, doubtful): 1
Haemoglobin Grade 4 ([1]; DL 5, 540 ug/m^2, doubtful): 2
Bilirubin Grade 1 ([1]; DL 6, 720 ug/m^2): 1
CPK Grade 1 ([1]; DL 6, 720 ug/m^2): 1
Diarrhoea Grade 1 ([1]; DL 6, 720 ug/m^2): 1
Fatigue Grade 1 ([1]; DL 6, 720 ug/m^2): 1
Fatigue Grade 4 ([1]; DL 6, 720 ug/m^2): 1
Fever Grade 1 ([1]; DL 6, 720 ug/m^2): 1
Haemoglobin Grade 2 ([1]; DL 6, 720 ug/m^2): 2
Hyper-sensitivity Grade 3 ([1]; DL 6, 720 ug/m^2): 1
Motor neuropathy Grade 3 ([1]; DL 6, 720 ug/m^2): 1
Myalgia/weakness Grade 4 ([1]; DL 6, 720 ug/m^2): 1
Nausea Grade 1 ([1]; DL 6, 720 ug/m^2): 3
SGOT Grade 1 ([1]; DL 6, 720 ug/m^2): 2
Sensory neuropathy Grade 1 ([1]; DL 6, 720 ug/m^2): 1
Haemoglobin Grade 3 ([1]; DL 6, 720 ug/m^2, doubtful): 2
Haemoglobin Grade 4 ([1]; DL 6, 720 ug/m^2, doubtful): 2
Fatigue Grade 2 ([1]; DL 7, 960 ug/m^2): 2
Haemoglobin Grade 2 ([1]; DL 7, 960 ug/m^2): 2
Nausea Grade 1 ([1]; DL 7, 960 ug/m^2): 1
Nausea Grade 2 ([1]; DL 7, 960 ug/m^2): 1
Sensory neuropathy Grade 1 ([1]; DL 7, 960 ug/m^2): 1
Granulocytes Grade 1 ([1]; DL 7, 960 ug/m^2, doubtful): 1
Haemoglobin Grade 4 ([1]; DL 7, 960 ug/m^2, doubtful): 1
haematological toxicities ([1]; Example 10): no haematological toxicities
plasma concentrations achieved ([1]; Example 10): > 1000 ng/mL
Grade 1 hypersensitivity reactions ([1]; Example 10, 20 patients): 7 patients
neuropathy or myopathy ([1]; Example 16): No clear evidence of neuropathy or myopathy
total body / plasma clearance ([1]; median): 0.38 L/min
Optimal activities, xenografted prostate tumours (Prostate PC-3; ip administration, range over regimens): 25-38%
Activity (% T/C.) (Prostate PC-3; q4dx3.ip, 1.05 mg/kg): 38% T/C
Activity (% T/C.) (Prostate PC-3; q4dx3.ip, 2.10 mg/kg): 34% T/C
Activity (% T/C.) (Prostate PC-3; qd9.ip, 0.62 mg/kg): 30% T/C
Activity (% T/C.) (Prostate PC-3; qd9.ip, 1.25 mg/kg): 25% T/C
